In PubChem BioAssay AID200 (DTP/NCI, 2004):
Values joined by “and” are separate entries in the source; they are usually repeats but may differ in a detail not shown here. Identical values can stand only once. Toxic doses and inconclusive results are not listed. Where a SMILES comes first, the peptide text is derived from it.

System: B6C3F1 mice, B16 melanoma ip, median survival T/C
Test: NCI In Vivo Anticancer Drug Screen. Data for tumor model B16 Melanoma (intraperitoneal) in B6C3F1 mice
Conditions: endpoint: median survival time, higher = longer survival
How it was run: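 Readout: survival or tumor size in treated mice relative to vehicle controls (T/C). Model uses transplantable tumors grown in mice.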

[1] = dose: 12.5 mg/kg/injection, schedule: Q01DX009 (ip), vehicle: saline with Tween-80
[2] = dose: 25.0 mg/kg/injection, schedule: Q01DX009 (ip), vehicle: saline with Tween-80
[3] = dose: 50.0 mg/kg/injection, schedule: Q01DX009 (ip), vehicle: saline with Tween-80
[4] = dose: 100.0 mg/kg/injection, schedule: Q01DX009 (ip), vehicle: saline with Tween-80
[5] = dose: 200.0 mg/kg/injection, schedule: Q01DX009 (ip), vehicle: saline with Tween-80
[6] = dose: 400.0 mg/kg/injection, schedule: Q01DX009 (ip), vehicle: saline with Tween-80
[7] = dose: 100.0 mg/kg/injection, schedule: Q01DX009 (ip), vehicle: Klucel (hydroxypropylcellulose) (HPC)
[8] = dose: 200.0 mg/kg/injection, schedule: Q01DX009 (ip), vehicle: Klucel (hydroxypropylcellulose) (HPC)
[9] = dose: 6.25 mg/kg/injection, schedule: Q01DX009 (ip), vehicle: saline with Tween-80
[10] = dose: 6.25 mg/kg/injection, schedule: Q01DX009 (ip), vehicle: saline
[11] = dose: 12.5 mg/kg/injection, schedule: Q01DX009 (ip), vehicle: saline
[12] = dose: 25.0 mg/kg/injection, schedule: Q01DX009 (ip), vehicle: saline
[13] = dose: 50.0 mg/kg/injection, schedule: Q01DX009 (ip), vehicle: saline
[14] = dose: 100.0 mg/kg/injection, schedule: Q01DX009 (ip), vehicle: saline
[15] = dose: 200.0 mg/kg/injection, schedule: Q01DX009 (ip), vehicle: saline
[16] = dose: 1.56 mg/kg/injection, schedule: Q01DX009 (ip), vehicle: saline with Tween-80
[17] = dose: 3.12 mg/kg/injection, schedule: Q01DX009 (ip), vehicle: saline with Tween-80

## O=NN(CCCl)C(=O)NC1CCCCC1
dose: 3.12 mg/kg/injection, schedule: Q01DX001 (ip), vehicle: carboxymethylcellulose (CMC)
  T/C: 103 % of control
dose: 3.12 mg/kg/injection, schedule: Q01DX005 (ip), vehicle: carboxymethylcellulose (CMC)
  T/C: 103 % of control
dose: 6.25 mg/kg/injection, schedule: Q01DX001 (ip), vehicle: carboxymethylcellulose (CMC)
  T/C: 99 % of control
dose: 6.25 mg/kg/injection, schedule: Q01DX005 (ip), vehicle: carboxymethylcellulose (CMC)
  T/C: 112 % of control
dose: 12.5 mg/kg/injection, schedule: Q01DX001 (ip), vehicle: carboxymethylcellulose (CMC)
  T/C: 98 % of control
dose: 12.5 mg/kg/injection, schedule: Q01DX005 (ip), vehicle: carboxymethylcellulose (CMC)
  T/C: 114 % of control
dose: 32.0 mg/kg/injection, schedule: Q01DX009 (ip), vehicle: Klucel (hydroxypropylcellulose) (HPC)
  T/C: 86 % of control
dose: 50.0 mg/kg/injection, schedule: Q01DX001 (ip), vehicle: carboxymethylcellulose (CMC)
  T/C: 177 % of control
dose: 50.0 mg/kg/injection, schedule: Q01DX005 (ip), vehicle: carboxymethylcellulose (CMC)
  T/C: 172 % of control
dose: 100.0 mg/kg/injection, schedule: Q01DX001 (ip), vehicle: carboxymethylcellulose (CMC)
  T/C: 204 % of control
dose: 100.0 mg/kg/injection, schedule: Q01DX005 (ip), vehicle: carboxymethylcellulose (CMC)
  T/C: 107 % of control

## Cc1ccc(C(=Nc2ccccc2)N=P(c2ccccc2)(c2ccccc2)c2ccccc2)cc1
[1]
  T/C: 94 % of control
[2]
  T/C: 114 % of control
[3]
  T/C: 99 % of control

## COc1nc2c(=O)[nH]c(N)nc2n1C1OC(CO)C(O)C1O (centres undefined)
[4]
  T/C: 96 % of control
[5]
  T/C: 93 % of control
[6]
  T/C: 91 % of control

## CC(C)(C)OC(=O)NC(Cc1ccc(O)cc1)C(=O)ON1C(=O)CCC1=O (centres undefined)
[7]
  T/C: 101 % of control
[8]
  T/C: 96 % of control

## C=C1N(C)c2ccccc2C1(C)C
[9]
  T/C: 110 % of control
[1]
  T/C: 108 % of control

## O=C1C(CO)=C[C@@H](O)[C@H]2O[C@@H]12
dose: 3.12 mg/kg/injection, schedule: Q01DX009 (ip), vehicle: saline
  T/C: 88 % of control
[10]
  T/C: 98 % of control
[11]
  T/C: 100 % of control
[12]
  T/C: 96 % of control
[13]
  T/C: 106 % of control

## CC(C)CC(NC(=O)CNC(=O)C(CC(C)C)NC(=O)CN)C(=O)O (centres undefined) (H-GLGL-OH; configuration not given here)
[7]
  T/C: 120 % of control
[8]
  T/C: 118 % of control
dose: 400.0 mg/kg/injection, schedule: Q01DX009 (ip), vehicle: Klucel (hydroxypropylcellulose) (HPC)
  T/C: 122 % of control

## CCCCCCCCCCCCCCCCC(C(=O)O)C(O)(CC(=O)O)C(=O)O (centres undefined)
dose: 8.75 mg/kg/injection, schedule: Q01DX009 (ip), vehicle: Klucel (hydroxypropylcellulose) (HPC)
  T/C: 95 % of control
dose: 17.5 mg/kg/injection, schedule: Q01DX009 (ip), vehicle: Klucel (hydroxypropylcellulose) (HPC)
  T/C: 91 % of control
dose: 35.0 mg/kg/injection, schedule: Q01DX009 (ip), vehicle: Klucel (hydroxypropylcellulose) (HPC)
  T/C: 100 % of control
dose: 70.0 mg/kg/injection, schedule: Q01DX009 (ip), vehicle: Klucel (hydroxypropylcellulose) (HPC)
  T/C: 93 % of control

## Cc1[nH]ccc(=O)c1O
dose: 16.0 mg/kg/injection, schedule: Q01DX009 (ip), vehicle: saline with Tween-80
  T/C: 103 % of control
dose: 32.0 mg/kg/injection, schedule: Q01DX009 (ip), vehicle: saline with Tween-80
  T/C: 103 % of control
dose: 64.0 mg/kg/injection, schedule: Q01DX009 (ip), vehicle: saline with Tween-80
  T/C: 109 % of control
dose: 128.0 mg/kg/injection, schedule: Q01DX009 (ip), vehicle: saline with Tween-80
  T/C: 111 % of control
dose: 256.0 mg/kg/injection, schedule: Q01DX009 (ip), vehicle: saline with Tween-80
  T/C: 118 % of control

## CCCC1C/C=C/C=C/C=C/C=C/C(OC2OC(C)C(O)C(N)C2O)CC(O)C(C(=O)O)C(O)CC(=O)CC(O)CCCC(=O)CC(O)C(CC)C(=O)O1 (centres undefined)
dose: 2.5 mg/kg/injection, schedule: Q01DX009 (ip), vehicle: Klucel (hydroxypropylcellulose) (HPC)
  T/C: 114 % of control
dose: 5.0 mg/kg/injection, schedule: Q01DX009 (ip), vehicle: Klucel (hydroxypropylcellulose) (HPC)
  T/C: 106 % of control
dose: 10.0 mg/kg/injection, schedule: Q01DX009 (ip), vehicle: Klucel (hydroxypropylcellulose) (HPC)
  T/C: 104 % of control
dose: 20.0 mg/kg/injection, schedule: Q01DX009 (ip), vehicle: Klucel (hydroxypropylcellulose) (HPC)
  T/C: 89 % of control

## CO[C@@]12[C@@H]3N[C@@H]3CN1C1=C(C(=O)C(NCC3CCCO3)=C(C)C1=O)[C@@H]2COC(N)=O (some centres undefined)
dose: 1.5 mg/kg/injection, schedule: Q04DX003 (ip), vehicle: distilled water + Tween-80
  T/C: 179 % of control
dose: 3.0 mg/kg/injection, schedule: Q04DX003 (ip), vehicle: distilled water + Tween-80
  T/C: 172 % of control and 173 % of control and 178 % of control
dose: 6.0 mg/kg/injection, schedule: Q04DX003 (ip), vehicle: distilled water + Tween-80
  T/C: 179 % of control and 207 % of control and 208 % of control
dose: 12.0 mg/kg/injection, schedule: Q04DX003 (ip), vehicle: distilled water + Tween-80
  T/C: 185 % of control and 223 % of control and 240 % of control
dose: 24.0 mg/kg/injection, schedule: Q04DX003 (ip), vehicle: distilled water + Tween-80
  T/C: 174 % of control and 258 % of control and 326 % of control

## CCCC(NC(=O)OCc1ccccc1)C(=O)O (centres undefined)
[4]
  T/C: 92 % of control
[5]
  T/C: 90 % of control

## CCS(=O)(=O)OCCCCOS(=O)(=O)CC
[2]
  T/C: 97 % of control
[3]
  T/C: 100 % of control

## C=C(C)C(=O)OCC12CCC(C)=CC1OC1C(O)C(OC(=O)CCl)C2(C)C12CO2 (centres undefined)
dose: 0.5 mg/kg/injection, schedule: Q01DX009 (ip), vehicle: water
  T/C: 163 % of control
dose: 1.0 mg/kg/injection, schedule: Q01DX009 (ip), vehicle: water
  T/C: 163 % of control
dose: 2.0 mg/kg/injection, schedule: Q01DX009 (ip), vehicle: water
  T/C: 159 % of control

## CN(C)CCC(=O)C(=Cc1ccc(O)cc1)C(=O)CCN(C)C
[11]
  T/C: 101 % of control
[12]
  T/C: 97 % of control
[13]
  T/C: 101 % of control
[14]
  T/C: 97 % of control
[15]
  T/C: 102 % of control

## C[CH2][Sn]([CH2]C)([CH2]C(=O)OC)[CH2]C(=O)OC
[16]
  T/C: 95 % of control
[17]
  T/C: 107 % of control
[9]
  T/C: 90 % of control

## CO[C@@H]1[C@H](O)CC[C@]2(CO2)[C@H]1[C@@]1(C)O[C@@H]1CC=C(C)C
[16]
  T/C: 102 % of control and 105 % of control
[17]
  T/C: 108 % of control and 109 % of control and 122 % of control
dose: 3.13 mg/kg/injection, schedule: Q01DX009 (ip), vehicle: saline
  T/C: 108 % of control
[10]
  T/C: 111 % of control
[4]
  T/C: 104 % of control

## Nc1ncc(S(=O)(=O)c2ccc([N+](=O)[O-])cc2)c(N)n1
dose: 75.0 mg/kg/injection, schedule: Q01DX009 (ip), vehicle: saline
  T/C: 100 % of control
dose: 150.0 mg/kg/injection, schedule: Q01DX009 (ip), vehicle: saline
  T/C: 102 % of control
dose: 300.0 mg/kg/injection, schedule: Q01DX009 (ip), vehicle: saline
  T/C: 87 % of control

## C/C(=N\O)C(O)c1ccccc1 (centres undefined)
[4]
  T/C: 98 % of control
[5]
  T/C: 107 % of control
[6]
  T/C: 92 % of control

## c1ccc2c3c(c4c(c2c1)CN(C1CCCCC1)CO4)OCN(C1CCCCC1)C3
dose: 3.12 mg/kg/injection, schedule: Q01DX009 (ip), vehicle: other
  T/C: 92 % of control
dose: 6.25 mg/kg/injection, schedule: Q01DX009 (ip), vehicle: other
  T/C: 89 % of control

## NC(CCC(=O)Nc1ccc(O)cc1)C(=O)O (centres undefined)
[13]
  T/C: 117 % of control
[14]
  T/C: 120 % of control
[15]
  T/C: 103 % of control
dose: 400.0 mg/kg/injection, schedule: Q01DX009 (ip), vehicle: saline
  T/C: 124 % of control

## CCCCCC[C@H]([C@H](C)O)n1cnc2c(N)ncnc21
dose: 12.5 mg/kg/injection, schedule: Q01DX009 (ip), vehicle: Klucel (hydroxypropylcellulose) (HPC)
  T/C: 122 % of control
dose: 25.0 mg/kg/injection, schedule: Q01DX009 (ip), vehicle: Klucel (hydroxypropylcellulose) (HPC)
  T/C: 88 % of control
dose: 50.0 mg/kg/injection, schedule: Q01DX009 (ip), vehicle: Klucel (hydroxypropylcellulose) (HPC)
  T/C: 111 % of control and 92 % of control
[7]
  T/C: 84 % of control and 92 % of control
[8]
  T/C: 79 % of control
